US6620844B2, “Method for reducing blood insulin levels by reducing in vivo cathepsin L activity” (NewMillennium Pharmaceutical, Inc., priority 2001, dated 2003)
pIC50, pKi: −log10 of the molar value.

Assays:
[1] = target: Cathepsin S (Homo sapiens, UniProt P25774); settings: cited from earlier work
[2] = target: Cathepsin B (Homo sapiens, UniProt P07858); settings: cited from earlier work
[3] = target: T1, Cathepsin K (Homo sapiens, UniProt P43235); settings: cited from earlier work
T1 sequence (P43235 115-329): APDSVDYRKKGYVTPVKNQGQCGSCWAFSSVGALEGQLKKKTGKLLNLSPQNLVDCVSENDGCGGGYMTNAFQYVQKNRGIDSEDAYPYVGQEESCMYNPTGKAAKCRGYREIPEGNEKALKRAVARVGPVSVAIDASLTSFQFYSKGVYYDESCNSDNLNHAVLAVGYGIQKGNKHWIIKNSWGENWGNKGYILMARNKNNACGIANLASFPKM

[4] = target: Cathepsin L (Homo sapiens, UniProt P07711); settings: cited from earlier work
[5] = target: T2, cathepsin L (Mus musculus, UniProt P06797); test: Cysteine protease active site labeling in mouse peritoneal macrophages: cathepsin L; format: cell-based; settings: 2 μM, mouse peritoneal macrophages
T2 construct: endogenous in cells; host or cells: thioglycolate-elicited mouse peritoneal macrophages
Method: (§1) FIG. 1. Cysteine protease inhibition profile by synthetic inhibitors in mouse peritoneal macrophages. [^125I]-Z-Tyr-Ala-CHN2-labeled mouse peritoneal macrophages were lysed and separated onto 12% SDS-PAGE to visualize labeled active cathepsins. Doses and inhibitors used were all indicated.
(§2) Mouse peritoneal macrophages were generated by injecting mice with thioglycolate as described in Shi et al. (2000) J. Exp. Med. 191:[…]. After 3-4 days of incubation, peritoneal microphages were washed out using Tris-EDTA buffers containing 6 mM EDTA (pH 8.0). Cells were then seeded onto 24-well plates in DMEM with 10% FBS till complete spread. After cells were attached to the plates, different doses of inhibitors were added. After 2-3 hours of incubation, cells were labeled with [^125I]-Z-Tyr-Ala-CHN2 overnight at 37° C. to detect intracellular active cysteine proteases. Cells were lysed into 1× reducing protein sample buffer and separated onto 12% SDS-PAGE.
(§3) First, the synthetic small molecule compounds were tested for their selectivity toward different forms of cathepsin. Mouse peritoneal macrophages were cultured in the presence of selective inhibitors and cysteine protease active site labeling probe [^125I]-Z-Tyr-Ala-CHN2 (Sukhova et al., supra). […] In contrast, other inhibitors used had no effect on cathepsin B activity. […] Therefore, these inhibitors can be utilized to test if the aforementioned cathepsins play roles in the breakdown of insulin receptor (IR) or IR turnover.

[6] = target: cathepsin S (Mus musculus, UniProt O70370); test: Cysteine protease active site labeling in mouse peritoneal macrophages: cathepsin S; format: cell-based; design: endogenous in cells; host or cells: thioglycolate-elicited mouse peritoneal macrophages; settings: 2 μM
Method: as §1, §2
First, the synthetic small molecule compounds were tested for their selectivity toward different forms of cathepsin. Mouse peritoneal macrophages were cultured in the presence of selective inhibitors and cysteine protease active site labeling probe [^125I]-Z-Tyr-Ala-CHN2 (Sukhova et al., supra). […] In contrast, other inhibitors used had no effect on cathepsin B activity. […]

[7] = target: T3, cathepsin B (Mus musculus, UniProt P10605); test: Cysteine protease active site labeling in mouse peritoneal macrophages: cathepsin B; format: cell-based; settings: 2 μM
T3 construct: endogenous in cells; host or cells: thioglycolate-elicited mouse peritoneal macrophages
Method: as §1, §2, §3

[8] = target: T4, cathepsin K (Mus musculus, UniProt P55097); test: Cysteine protease active site labeling in mouse peritoneal macrophages: cathepsin K; format: cell-based; settings: 2 μM
T4 construct: endogenous in cells; host or cells: thioglycolate-elicited mouse peritoneal macrophages
T4 sequence (P55097 115-329): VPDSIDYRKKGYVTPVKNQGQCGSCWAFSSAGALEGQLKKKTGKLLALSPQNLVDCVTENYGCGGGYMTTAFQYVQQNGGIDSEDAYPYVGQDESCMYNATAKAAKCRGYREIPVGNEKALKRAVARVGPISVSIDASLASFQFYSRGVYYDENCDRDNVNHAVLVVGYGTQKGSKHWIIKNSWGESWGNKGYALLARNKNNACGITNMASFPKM
Method: as §1, §2, §3

[9] = system: human preadipocytes; test: Human preadipocyte adipogenesis, oil-red staining; format: cell-based; settings: human preadipocytes
Method: FIG. 6. Oil-red staining of human preadipocytes and adipocytes.
(§4) Human preadipocytes were initially cultured in MSCGM medium (BioWhitaker) at 37° C. and 5% CO2 for 7 to 12 days with 3-4 changes of media till complete confluence. Non-induced cells were kept in adipogenesis maintenance media containing 0.01 mg/ml of insulin, 0.05 units/ml of penicillin, 0.05 μg/ml of streptomycin, and 10% fetal bovine serum. To induce adipogenesis, complete confluent cells were cultured in adipogenesis induction medium containing 1 μM dexamethasone, 0.2 mM indomethacin, 0.01 mg/ml insulin, 0.5 mM 3-isobutyl-1-methyl-xanthine, 0.05 units/ml of penicillin, 0.05 μg/ml of streptomycin, and 10% fetal bovine serum in the presence and absence of protease inhibitors for 3 days followed by three days of culture in maintenance media. After three cycles of induction and maintenance, cells were cultured in maintenance media for additional 7 days with two changes of fresh media.
This hypothesis is further confirmed by oil-red staining of CLIK 148 or 195 treated preadipocytes (FIG. 6). In addition, inhibition of adiogenesis by these two inhibitors is dose dependent. Less than 50% of adipogenesis was blocked by 1 μM of such inhibitors. […] In contrast, 1 μM of CLIK 060, 1 or 10 μM of CA 074 had no effect on adipogenesis (data not shown). Therefore, these observations indicate that cathepsin L appears to play a more critical role than cathepsins S and K in adipogenesis by controlling insulin/IR complex turnover.

[10] = system: insulin receptor β subunit; test: Insulin receptor turnover in human preadipocytes, Western blot; format: cell-based
Method: FIG. 2. […] Human preadipocytes were incubated with and without inhibitors indicated at different doses, lysed, separated onto 7% SDS-PAGE, and probed with goat anti-human insulin receptor β-subunit polyclonal antibodies. Both mature β subunit and its precursor were indicated.
as §4
(§5) After differentiation, cells were collected, and lysed into 1×RIPA buffer. Protein concentrations were determined using Bio-Rad Dc protein assay system according to the manufacturer (Bio-Rad, Hercules, Calif.). Equal amount of proteins were separated on 7% SDS-PAGE for detecting IR and IGF-1R, 12% SDS-PAGE for detecting cathepsins S, K, and L antigens. Both IR and IGF-1R primary polyclonal antibodies were raised from goat and all cathepsin antibodies were polyclonal antibodies raised from rabbit. The corresponding HRP-conjugated secondary antibodies were used for detections.
To test which cathepsin is involved in the IR turnover, human preadipocytes (BioWhittaker, Walkersville, Md.) were induced to become adipocytes in the presence and absence of inhibitors. Differentiated adipocytes expressed more IR than controls as previously reported. Pederson et al. (2000) Biochem. Biophys. Res. Commun. 276:162-168. Cathepsin B inhibitor (CA 074, 10 μM) and catepsin S inhibitor (CLIK 060, 2 μM) had no effect on either IR turnover or differentiation (FIGS. 2). […] The same is true when the blot was tested with insulin like growth factor I receptor (IGF-IR) antibodies (FIG. 3).

[11] = system: insulin like growth factor I receptor (IGF-IR); test: IGF-IR levels in human preadipocytes, Western blot; format: cell-based; settings: 20 μM
Method: FIG. 3. […] Cells were treated as in FIG. 2. Western blot analysis was performed using goat anti-human IGF-1R polyclonal antibodies.
as §4, §5
To test which cathepsin is involved in the IR turnover, human preadipocytes (BioWhittaker, Walkersville, Md.) were induced to become adipocytes in the presence and absence of inhibitors. Differentiated adipocytes expressed more IR than controls as previously reported. Pederson et al. (2000) Biochem. Biophys. Res. Commun. 276:162-168. Cathepsin B inhibitor (CA 074, 10 μM) and catepsin S inhibitor (CLIK 060, 2 μM) had no effect on either IR turnover or differentiation (FIGS. 2). […]

[12] = system: peroxisome proliferator-activated receptor-γ (PPAR-γ); test: PPAR-γ levels in human preadipocytes, Western blot; format: cell-based; settings: human preadipocytes differentiated with inhibitor, FIG. 5
Method: FIG. 5. Inhibition of cathepsin L blocked the expression of PPAR-γ. Human preadipocytes were used and Western blot analysis was performed as in FIG. 4 instead of using mouse anti-human PPAR-γ monoclonal antibodies as the primary antibodies.
as §4
(§6) To evaluate the cell differentiation levels affected by aforementioned inhibitors, the levels of transcription factors CCAAT/enhancer-binding protein-α (C/EBP-α) as well as peroxisome proliferator-activated receptor-γ (PPAR-γ) from cells treated with and without inhibitors were measured. Both C/EBP-α and PPAR-γ are important adipocyte determination factors. Wu et al. (1999) Mol. Cell. 3:151-158; Tanaka et al. (1997) EMBO J. 16:7432-7443; and Tontonoz et al. (1994) Cell 79:1147-1156.

[13] = system: CCAAT/enhancer-binding protein-α (C/EBP-α); test: C/EBP-α levels in human preadipocytes, Western blot; format: cell-based; settings: human preadipocytes differentiated with inhibitor, FIG. 4
Method: FIG. 4. Inhibition of cathepsin L blocked the expression of CCAAT/enhancer-binding protein. Human preadipocytes were differentiated as in FIG. 2. A 10% gel was used to perform Western blot analysis using goat anti-human C/EBP-α polyclonal antibodies and the blot was detected using the corresponding HRP-conjugated secondary antibodies.
as §4, §6

Chain of Cathepsin L (P07711 114-333, species assumed): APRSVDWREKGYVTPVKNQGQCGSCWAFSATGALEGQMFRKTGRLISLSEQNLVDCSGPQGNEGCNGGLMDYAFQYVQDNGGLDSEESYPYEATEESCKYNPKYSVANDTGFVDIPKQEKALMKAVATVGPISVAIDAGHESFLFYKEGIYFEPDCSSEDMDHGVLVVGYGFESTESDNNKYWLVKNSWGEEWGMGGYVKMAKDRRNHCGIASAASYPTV
Chain of Cathepsin S (P25774 115-331, species assumed): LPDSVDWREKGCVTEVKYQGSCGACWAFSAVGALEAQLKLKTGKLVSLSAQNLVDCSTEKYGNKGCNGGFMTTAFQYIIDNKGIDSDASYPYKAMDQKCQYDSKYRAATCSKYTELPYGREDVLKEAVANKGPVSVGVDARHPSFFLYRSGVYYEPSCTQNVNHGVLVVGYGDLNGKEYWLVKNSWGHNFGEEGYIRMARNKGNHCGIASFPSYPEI
T2 sequence (P06797 114-334): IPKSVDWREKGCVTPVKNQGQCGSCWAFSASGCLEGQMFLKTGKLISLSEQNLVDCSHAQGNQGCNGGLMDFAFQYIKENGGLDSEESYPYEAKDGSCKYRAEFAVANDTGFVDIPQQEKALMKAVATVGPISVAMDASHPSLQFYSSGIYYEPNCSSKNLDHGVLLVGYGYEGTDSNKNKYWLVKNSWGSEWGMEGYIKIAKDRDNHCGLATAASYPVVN
T3 sequence (P10605 80-333 limits assumed): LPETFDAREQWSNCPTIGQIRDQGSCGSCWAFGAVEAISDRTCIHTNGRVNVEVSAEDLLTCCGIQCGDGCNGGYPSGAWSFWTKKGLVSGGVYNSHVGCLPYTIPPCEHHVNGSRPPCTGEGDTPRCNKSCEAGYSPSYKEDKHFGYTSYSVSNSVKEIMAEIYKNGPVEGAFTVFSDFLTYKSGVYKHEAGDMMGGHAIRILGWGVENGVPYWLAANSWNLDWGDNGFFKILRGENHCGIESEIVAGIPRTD

In the case of `CC(C)CC(NC(=O)[C@@H](Cc1ccccc1)NC(=O)OCc1ccccc1)C(=O)C=O` (stereo partly drawn), the pKi [1] is given as 9.73 and the pKi [2] is given as 9.12.
In the case of `N#CN1CCC(NC(=O)Cc2ccccc2)C1` (stereo not drawn), the pIC50 [3] is given as 7.40, the pIC50 [2] is given as 6.70 and the pIC50 [4] is given as 7.27.
For `O=C(N[C@@H](Cc1ccc2ccccc2c1)C(=O)N[C@H]1CCCN(S(=O)(=O)c2ccccn2)CC1=O)c1cccc2cccnc12`, the pKi [3] is given as 6.30 to 6.38.
For `CC(C)C[C@H](NC(=O)N1CCOCC1)C(=O)N[C@H](/C=C/S(=O)(=O)c1ccccc1)CCc1ccccc1`, the pKi [1] is listed as 8.30.
With `CCCNC(=O)[C@H]1O[C@@H]1C(=O)N[C@H](C(=O)N1CCC[C@H]1C(=O)O)[C@@H](C)CC` [CA 074] the “cathepsin L activity (active site labeling)” value [5] was “remain intact”, the “cathepsin S activity (active site labeling)” value [6] was “remain intact” and the “cathepsin B activity (active site labeling)” value [7] was “completely blocked”. The “cathepsin K activity (active site labeling)” value [8] was “remain intact”, the effect on adipogenesis ([9]; 1 μM) was “no effect” and the “inhibition of adipogenesis / differentiation” value ([9]; 10 μM) was “no effect”. For the same molecule, the effect on adipogenesis ([9]; 10-20 μM) was “no effect” and the IR turnover ([10]; 10 μM, human preadipocytes induced to adipocytes) was “no effect”.
For `O=C[C@H](Cc1c[nH]c2ccccc12)NC(=O)C(Cc1ccccc1)Cc1ccccc1`, the pIC50 [2] is listed as under 6.00 and the pIC50 [4] is listed as over 7.49.
For `N#CN1CC(NC(=O)CC2CCCCC2)C1`, the pIC50 [3] is given as 8.30, the pIC50 [2] is given as 6.82 and the pIC50 [4] is given as 8.22.
In the case of `CCOC(=O)[C@H]1O[C@@H]1C(=O)N[C@@H](CC(C)C)C(=O)NCCC(C)C` [E64d], the “levels of IGF-IR β subunit and its precursor (the same as for IR)” value [11] was “increased levels”, the “accumulation of 50 kDa PPAR-γ” value [12] was “blocking the accumulation” and the “accumulation of 50 kDa C/EBP-α” value [13] was “blocking the accumulation”. For the same molecule, the “levels of 95 kDa IR β subunit and its precursor” value ([10]; 20 μM, human preadipocytes) was “increased levels”.
